# Source: patent publication US10138222B2, “Substituted benzamides as RIPK2 inhibitors” (Boehringer Ingelheim International GmbH, priority 2016, dated 2018)
# Molecular target: RIPK2 (Homo sapiens (Human), UniProt O43353)
# Assay: RIPK2 inhibition, ADP-Glo Kinase Assay
# Type: biochemical
# Settings: 8His-RIPK2 FL enzyme 8 nM, ATP 5 μM, 15 minutes pre-incubation, 60 minutes at 37° C., luminescence
# Procedure: RIPK2 inhibition for compounds in Table 1 are shown in Table 3 and measured using the following method:
# Materials: White, 384-well optiplates (cat.no. 6007290) were purchased from PerkinElmer. The V9103X ADP-Glo Kinase Assay Custom (including ultra-pure ATP) was purchased from Promega. 8His-RIPK2 FL was prepared in-house. All other materials were of highest grade commercially available.
# Method: In a 384-well plate, test compound diluted in assay buffer (1% DMSO final) is mixed with 8His-RIPK2 FL enzyme (final concentration of 8 nM). After 15 minutes of pre-incubation at RT, ATP dissolved in assay buffer is added (final concentration 5 μM). The mixture is incubated for 60 minutes at 37° C. in a humidified incubator. Then, ADP Glo Reagent is added, followed by a 40 minute incubation at rt. Finally, Kinase Detection Reagent is added and the entire mixture is incubated for 40 min at RT. The luminescence signal is measured with an Envision reader to determine the amount of ADP produced. Assay buffer: 25 mM HEPES (4-(2-hydroxyethyl)-1-piperazinethanesulfonic acid), 0.1% BSA (bovine serum albumin), 10 mM MgCl2, 5 mM MnCl2, 50 mM KCl, 0.01% CHAPS (3-[(3-cholamidopropyl)dimethylammonio]-1-propanesulfonate), 10 μM Na3VO4, 1 mM DTT (dithiothreitol), pH 7.5 All plates contain wells with vehicle controls instead of compound (1% DMSO) as reference for the high signal (100% CTL (100% of control), high signal), and wells without enzyme as reference for low signal (0% CTL, low signal). The luminescent signal generated is proportional to the ADP produced and is correlated with enzyme activity. The analysis of the data is performed by the calculation of the percentage of ADP production in the presence of the test compound and RIPK2 as compared to the ADP production in the presence of RIPK2 plus 50 μM Gefitinib. (RLU (relative luminescence units) (sample)−RLU(low control))*100/(RLU(high value)−RLU(low control)) [RLU=relative luminescence units].
# Sequence of RIPK2 (O43353 whole entry): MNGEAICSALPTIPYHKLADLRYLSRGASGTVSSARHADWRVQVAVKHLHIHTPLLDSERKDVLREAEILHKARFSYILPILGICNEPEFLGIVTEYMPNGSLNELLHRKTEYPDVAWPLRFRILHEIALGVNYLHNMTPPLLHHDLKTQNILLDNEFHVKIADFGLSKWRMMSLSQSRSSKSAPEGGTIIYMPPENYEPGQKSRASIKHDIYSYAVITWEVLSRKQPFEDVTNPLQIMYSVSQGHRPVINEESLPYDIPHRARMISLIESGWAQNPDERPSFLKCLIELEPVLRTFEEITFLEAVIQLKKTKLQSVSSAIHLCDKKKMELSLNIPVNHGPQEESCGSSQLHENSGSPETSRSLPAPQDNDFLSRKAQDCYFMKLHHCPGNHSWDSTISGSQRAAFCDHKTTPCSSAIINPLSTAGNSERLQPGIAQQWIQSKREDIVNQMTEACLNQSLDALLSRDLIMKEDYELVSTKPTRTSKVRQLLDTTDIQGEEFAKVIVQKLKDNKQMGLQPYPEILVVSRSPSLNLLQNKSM
row,SMILES,IC50
1,"COc1cncc(-n2cc(-c3cc(C(=O)NC4CC4)c(F)cc3C)cn2)c1 [Example 25, N-cyclopropyl-2-fluoro-5-[1-(5-methoxypyridin-3-yl)-1H-pyrazol-4-yl]-4-methylbenzamide]",3.7 nM
2,"COc1cncc(-n2cc(-c3cc(C(=O)NC4CC4)c(F)cc3Cl)cn2)c1 [Example 26, 4-chloro-N-cyclopropyl-2-fluoro-5-[1-(5-methoxypyridin-3-yl)-1H-pyrazol-4-yl]benzamide]",8.9 nM
3,"COc1cncc(-n2cc(-c3cc(C(=O)NC4CC4)ccc3Cl)cn2)c1 [Example 27, 4-chloro-N-cyclopropyl-3-[1-(5-methoxypyridin-3-yl)-1H-pyrazol-4-yl]benzamide]",22 nM
4,"COc1cncc(-n2cc(-c3cc(C(=O)NC4CC4)ccc3C)cn2)c1 [Example 28, N-cyclopropyl-3-[1-(5-methoxy-pyridin-3-yl)-1H-pyrazol-4-yl]-4-methylbenzamide]",15 nM
5,"O=C(NC1CC1)c1ccc(Cl)c(-c2cnn(-c3cccnc3)c2)c1 [Example 31, 4-chloro-N-cyclopropyl-3-[1-(pyridin-3-yl)-1H-pyrazol-4-yl]benzamide]",94 nM
6,"O=C(NC1CC1)c1cc(-c2cnn(-c3cccnc3)c2)c(Cl)cc1F [Example 32, 4-chloro-N-cyclopropyl-2-fluoro-5-[1-(pyridin-3-yl)-1H-pyrazol-4-yl] benzamide]",14 nM
7,"COc1cncc(-n2cnc(-c3cc(C(=O)NC4CC4)c(F)cc3Cl)c2)c1 [Example 33, 4-chloro-N-cyclopropyl-2-fluoro-5-[1-(5-methoxypyridin-3-yl)-1H-imidazol-4-yl]benzamide]",7.4 nM
8,"Cc1ccc(C(=O)NC2CC2)cc1-c1cnn(-c2cccnc2)c1 [Example 34, N-cyclopropyl-4-methyl-3-[1-(pyridin-3-yl)-1H-pyrazol-4-yl] benzamide]",38 nM
9,"Cc1ccc(C(=O)NC2CC2)cc1-c1cn(-c2cccnc2)cn1 [Example 35, N-cyclopropyl-4-methyl-3-[1-(pyridin-3-yl)-1H-imidazol-4-yl] benzamide]",39 nM
10,"CCOc1cncc(-n2cc(-c3cc(C(=O)NC4CC4)ccc3C)cn2)c1 [Example 36, N-cyclopropyl-3-[1-(5-ethoxypyridin-3-yl)-1H-pyrazol-4-yl]-4-methyl-benzamide]",8.8 nM
11,"CNCc1cncc(-n2cc(-c3cc(C(=O)NC4CC4)ccc3C)cn2)c1 [Example 39, N-cyclopropyl-4-methyl-3-(1-{5-[(methylamino)methyl]pyridin-3-yl}-1H-pyrazol-4-yl)benzamide]",180 nM
12,"Cc1ccc(C(=O)NC2CC2)cc1-c1cnn(-c2cncc(CO)c2)c1 [Example 43, N-cyclopropyl-3-{1-[5-(hydroxymethyl)pyridin-3-yl]-1H-pyrazol-4-yl}-4-methylbenzamide]",24 nM
13,"Cc1ccc(C(=O)NC2CC2)cc1-c1cnn(-c2cncc(N(C)C)c2)c1 [Example 44, N-cyclopropyl-3-{1-[5-(dimethylamino)pyridin-3-yl]-1H-pyrazol-4-yl}-4-methylbenzamide]",6.4 nM
14,"Cc1ccc(C(=O)NC2CC2)cc1-c1cnn(-c2cncc(C3CC3)c2)c1 [Example 45, N-cyclopropyl-3-[1-(5-cyclopropyl-pyridin-3-yl)-1H-pyrazol-4-yl]-4-methylbenzamide]",3.6 nM
15,"Cc1ccc(C(=O)NC2CC2)cc1-c1cnn(-c2cncc(S(C)(=O)=O)c2)c1 [Example 46, N-cyclopropyl-3-[1-(5-methanesulfonylpyridin-3-yl)-1H-pyrazol-4-yl]-4-methylbenzamide]",190 nM
16,"Cc1ccc(C(=O)NC2CC2)cc1-c1cnn(-c2cncc(C(F)(F)F)c2)c1 [Example 47, N-cyclopropyl-4-methyl-3-{1-[5-(trifluoromethyl)pyridin-3-yl]-1H-pyrazol-4-yl}benzamide]",57 nM
17,"Cc1ccc(C(=O)NC2CC2)cc1-c1cnn(-c2cncc(C(=O)O)c2)c1 [Example 48, 5-{4-[5-(cyclopropylcarbamoyl)-2-methylphenyl]-1H-pyrazol-1-yl} pyridine-3-carboxylic acid]",33 nM
18,"Cc1ccc(C(=O)NC2CC2)cc1-c1cnn(-c2cncc(C(=O)N(C)C)c2)c1 [Example 49, 5-{4-[5-(cyclopropylcarbamoyl)-2-methylphenyl]-1H-pyrazol-1-yl}-N,N-dimethylpyridine-3-carboxamide]",390 nM
19,"CC(=O)NC(C)(C)c1cncc(-n2cc(-c3cc(C(=O)NC4CC4)ccc3C)cn2)c1 [Example 50, N-cyclopropyl-3-{1-[5-(2-acetamidopropan-2-yl)pyridin-3-yl]-1H-pyrazol-4-yl}-4-methylbenzamide]",570 nM
20,"Cc1ccc(C(=O)NC2CC2)cc1-c1cnn(-c2cncc(CC(=O)O)c2)c1 [Example 51, 2-(5-{4-[5-(cyclopropylcarbamoyl)-2-methylphenyl]-1H-pyrazol-1-yl}pyridin-3-yl)acetic acid]",240 nM
21,"Cc1ccc(C(=O)NC2CC2)cc1-c1cnn(-c2cncc(CC#N)c2)c1 [Example 52, 3-{1-[5-(cyanomethyl)pyridin-3-yl]-1H-pyrazol-4-yl}-N-cyclopropyl-4-methylbenzamide]",56 nM
22,"COc1cncc(-n2cnc(-c3cc(C(=O)NC4CC4)ccc3C)c2)c1 [Example 53, N-cyclopropyl-3-[1-(5-methoxypyridin-3-yl)-1H-imidazol-4-yl]-4-methyl-benzamide]",7.6 nM
23,"Cc1ccc(C(=O)NC2CC2)cc1-c1cnn(-c2cncc(NCCOC(C)(C)C)c2)c1 [Example 55, 3-[1-(5-{[2-(tert-butoxy)ethyl]amino}pyridin-3-yl)-1H-pyrazol-4-yl]-N-cyclopropyl-4-methylbenzamide]",9.7 nM

# The remaining lines, values ahead:
row,IC50,SMILES
1,1.7 nM,"Cc1cc(F)c(C(=O)NC2CC2)cc1-c1cnn(-c2cncc(N[C@H]3CCN(C)CC3(F)F)c2)c1 (single isomer, unassigned) [Example 175]"
2,1.5 nM,"Cc1cc(F)c(C(=O)NC2CC2)cc1-c1cnn(-c2cncc(N[C@@H]3CCN(C)CC3(F)F)c2)c1 (single isomer, unassigned) [Example 176]"
3,41 nM,"COc1cncc(-n2cnc(-c3cc(C(=O)NC4CC4)ccc3Cl)c2)c1 [Example 54, 4-chloro-N-cyclopropyl-3-[1-(5-methoxypyridin-3-yl)-1H-imidazol-4-yl]benzamide]"
4,10 nM,"CCO[C@H]1COC[C@@H]1Nc1cncc(-n2cc(-c3cc(C(=O)NC4CC4)ccc3C)cn2)c1 [Example 56, N-cyclopropyl-3-[1-(5-{[(3S,4R)-4-ethoxyoxolan-3-yl]amino}pyridin-3-yl)-1H-pyrazol-4-yl]-4-methyl-benzamide]"
5,4.5 nM,"Cc1ccc(C(=O)NC2CC2)cc1-c1cnn(-c2cncc(NCC3COCCO3)c2)c1 (stereo not shown) [Example 57, N-cyclopropyl-3-(1-{5-[(1,4-dioxan-2-ylmethyl)amino]pyridin-3-yl}-1H-pyrazol-4-yl)-4-methylbenzamide]"
6,3.8 nM,"Cc1ccc(C(=O)NC2CC2)cc1-c1cnn(-c2cncc(NCCN3CCOC3=O)c2)c1 [Example 58, N-cyclopropyl-4-methyl-3-[1-(5-{[2-(2-oxo-1,3-oxazolidin-3-yl)ethyl]amino}pyridin-3-yl)-1H-pyrazol-4-yl]benzamide]"
7,9.1 nM,"Cc1ccc(C(=O)NC2CC2)cc1-c1cnn(-c2cncc(NCC3CCCO3)c2)c1 (stereo not shown) [Example 59, N-cyclopropyl-4-methyl-3-(1-{5-[(oxolan-2-ylmethyl)amino]pyridin-3-yl}-1H-pyrazol-4-yl)benzamide]"
8,8.4 nM,"COCCNc1cncc(-n2cc(-c3cc(C(=O)NC4CC4)ccc3C)cn2)c1 [Example 60, N-cyclopropyl-3-(1-{5-[(2-methoxyethyl)amino]pyridin-3-yl}-1H-pyrazol-4-yl)-4-methylbenzamide]"
9,1.9 nM,"CC(=O)N1CCC(Nc2cncc(-n3cc(-c4cc(C(=O)NC5CC5)ccc4C)cn3)c2)CC1 [Example 63, 3-(1-{5-[(1-acetylpiperidin-4-yl)amino]pyridin-3-yl}-1H-pyrazol-4-yl)-N-cyclopropyl-4-methyl-benzamide]"
10,2.3 nM,"COC1CCC(Nc2cncc(-n3cc(-c4cc(C(=O)NC5CC5)ccc4C)cn3)c2)C1 (stereo not shown) [Example 65, N-cyclopropyl-3-(1-{5-[(3-methoxycyclopentyl)amino]pyridin-3-yl}-1H-pyrazol-4-yl)-4-methyl-benzamide]"
11,3.9 nM,"Cc1ccc(C(=O)NC2CC2)cc1-c1cnn(-c2cncc(N[C@@H]3C[C@H]4CC[C@@H]3O4)c2)c1 [Example 66, N-cyclopropyl-4-methyl-3-[1-(5-{[(1S,2R,4R)-7-oxabicyclo[2.2.1]heptan-2-yl]amino}pyridin-3-yl)-1H-pyrazol-4-yl]benzamide]"
